Literature values, collected in US11452768B2, “Combination therapy with neoantigen vaccine” (The Broad Institute Inc., priority 2013, dated 2022).

Columns and labels:
[1] = test system: advanced hormone refractory prostate cancer; conditions: personalized vaccination combined with a low dose of estramustine
[2] = test system: ovarian carcinoma; conditions: in combination with NY-ESO-1 peptide vaccine and Montanide
[3] = test system: gene expression in whole blood; conditions: one single s.c. administration, 8 volunteers vs 4 placebo
[4] = test system: advanced melanoma; conditions: nivolumab and ipilimumab combined, intravenous
[5] = test system: tumor types

Molecule: C[C@]12CC[C@@H]3c4ccc(OC(=O)N(CCCl)CCCl)cc4CC[C@H]3[C@@H]1CC[C@@H]2O [estramustine]
- Patients with a ≥50% decrease in serum prostate specific antigen (PSA) [1]: 54%

Molecule: Polyinosinic-Polycytidylic Acid-poly-L-lysine Carboxymethylcellulose [poly-ICLC]
- Patients showing induction of CD4+ and CD8+ T cell and antibody responses to the peptide [2]: > 90%
- Differentially expressed genes versus placebo [3]: up to 212 genes
- Fever (common adverse event, primary dose-limiting factor) (high doses ≥6 mg/m2): above 40 °C
- Tolerability across all studies and spectrum of diseases (low dose (1-2 mg total dose)): well-tolerated

Molecule: ipilimumab: monoclonal antibody that binds and blocks CTLA-4
- Maximum doses associated with an acceptable level of adverse events [4]: 3 mg per kilogram

Molecule: nivolumab: fully human IgG4 blocking monoclonal antibody against PD-1
- Objective responses ([5]; across tumor types): 16-31%
- Durability of most responses ([5]; in vivo): > 1 year
- Safety ([5]; in vivo): safe
- Maximum doses associated with an acceptable level of adverse events [4]: 1 mg per kilogram
